This test deals with Trypanosoma brucei Lister 427 VSG221 with APOL1 G0 recombinant protein. The experiment in a line: APOL1 G0 trypanosome cell rescue assay (Example B5). It is filed as cell-based. As to conditions: geometric mean of at least 2 assay runs, † = single assay run. The procedure, abridged: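 Compounds in duplicate 2-fold, 11-point series with 0.4% DMSO final. Next, tag-free mature APOL1 variant protein went in from a 2 μg/mL solution, then trypanosomes to 250 per well. Plates incubated 20 h humidified at 37° C, equilibrated to room temperature, and CellTiter-Glo added for luminescence.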

Where [1] appears, read: Trypanosoma brucei, 20 h, read-out: APOL1 G0 Trypanosome Rescue EC50, Trypanosoma brucei Lister 427 VSG221 with APOL1 G0 recombinant protein, 20 hours, CellTiter-Glo.
Where [2] appears, read: read-out: APOL1 G0 Trypanosome Rescue EC50, Trypanosoma brucei Lister 427 VSG221 with APOL1 G0 recombinant protein, 20 hours, CellTiter-Glo.

Like-named read-outs stand apart in the source and are kept apart here.

As for `CC(O)c1ncc(OCCN2CCC3(CC2)C(=O)Nc2ccc(C(F)F)cc23)cc1C(F)(F)F` (single isomer, unassigned) [Compound 287, 5-(difluoromethyl)-1′-[2-({6-[(1S) or (1R)-1-hydroxyethyl]-5-(trifluoromethyl)pyridin-3-yl}oxy)ethyl]-1,2-dihydrospiro[indole-3,4′-piperidin]-2-one], the EC50 under setting [1] turned out to be 37.6 nM.

`CC(O)c1ncc(OCCN2CCC3(CC2)C(=O)Nc2ccc(Cl)cc23)cn1` (single isomer, unassigned) [Compound 285, 5-chloro-1′-[2-({2-[(1S) or (1R)-1-hydroxyethyl]pyrimidin-5-yl}oxy)ethyl]-1,2-dihydrospiro[indole-3,4′-piperidin]-2-one]: the EC50 under setting [1] is 547 nM.

In the case of `CC(O)c1ncc(OCCN2CCC3(CC2)C(=O)Nc2ccc(Cl)cc23)cc1C(F)(F)F` (single isomer, unassigned) [Compound 291, 5-chloro-1′-[2-({6-[(1R) or (1S)-1-hydroxyethyl]-5-(trifluoromethyl)pyridin-3-yl}oxy)ethyl]-1,2-dihydrospiro[indole-3,4′-piperidin]-2-one], under setting [1], the EC50 is 63.1 nM.

Turning to `CS(=O)(=O)c1ccc(OCCN2CCC3(CC2)C(=O)Nc2ccc(Cl)cc23)cc1C(F)CF` (single isomer, unassigned) [Compound 218, 5-chloro-1′-(2-{3-[(1S or 1R)-1,2-difluoroethyl]-4-methanesulfonylphenoxy}ethyl)-1,2-dihydrospiro[indole-3,4′-piperidin]-2-one], under setting [2], the EC50 amounted to 65.1 nM.

`O=C1Nc2ccc(Cl)cc2C12CCN(CCOc1ccc(S(=O)(=O)[C@H]3C[C@H](O)C3)cc1)CC2` [Compound 215, 5-chloro-1′-[2-(4-{[(trans)-3-hydroxycyclobutyl]sulfonyl}phenoxy)ethyl]-1,2-dihydrospiro[indole-3,4′-piperidin]-2-one]: the EC50 under setting [1] came to 70.1 nM.

Turning to `O=C1Nc2ccc(Cl)cc2C12CCN(CCOc1ccc(S(=O)(=O)C3(CO)CC3)cc1)CC2` [Compound 225, 5-chloro-1′-[2-(4-{[1-(hydroxymethyl)cyclopropyl]sulfonyl}phenoxy)ethyl]-1,2-dihydrospiro[indole-3,4′-piperidin]-2-one], the EC50 under setting [1] was 35.2 nM.

For the compound `CS(=O)(=O)N1CC2(CN(C(=O)c3ccc(OCCN4CCC5(CC4)C(=O)Nc4ccc(Cl)cc45)cc3F)C2)C1` [Compound 273, 5-chloro-1′-[2-(3-fluoro-4-{6-methanesulfonyl-2,6-diazaspiro[3.3]heptane-2-carbonyl}phenoxy)ethyl]-1,2-dihydrospiro[indole-3,4′-piperidin]-2-one], under setting [1], the EC50 amounted to 64.9 nM.

Regarding `CS(=O)(=O)C1(c2ncc(OCCN3CCC4(CC3)C(=O)Nc3ccc(Cl)cc34)cn2)COC1` [Compound 276, 5-chloro-1′-(2-{[2-(3-methanesulfonyloxetan-3-yl)pyrimidin-5-yl]oxy}ethyl)-1,2-dihydrospiro[indole-3,4′-piperidin]-2-one], the EC50 under setting [1] was 178 nM.

On to `CC(=O)N(C)CCS(=O)(=O)c1ccc(OCCN2CCC3(CC2)C(=O)Nc2ccc(Cl)cc23)cc1` [Compound 193, N-{2-[4-(2-{5-chloro-2-oxo-1,2-dihydrosiro[indole-3,4′-piperidin]-1′-yl}ethoxy)benzenesulfonyl]ethyl}-N-methylacetamide], for which the EC50 under setting [1] was 200 nM.

Take `CC(C)(O)c1ncc(OCCN2CCC3(CC2)C(=O)Nc2ccc(Cl)cc23)cn1` [Compound 305, 5-chloro-1′-(2-{[2-(2-hydroxypropan-2-yl)pyrimidin-5-yl]oxy}ethyl)-1,2-dihydrospiro[indole-3,4′-piperidin]-2-one]: under setting [1], the EC50 worked out at 187 nM.

Regarding `O=C(c1ccc(OCCN2CCC3(CC2)C(=O)Nc2ccc(Cl)cc23)cc1F)N1CCS(=O)(=O)CC1` [Compound 232, 4-[4-(2-{5-chloro-2-oxo-1,2-dihydrospiro[indole-3,4′-piperidin]-1′-yl}ethoxy)-2-fluorobenzoyl]-1λ^6-thiomorpholine-1,1-dione], the EC50 under setting [1] stood at 97.6 nM.

Regarding `C[C@]1(O)C[C@@H](N2C(=O)CCc3cc(OCCN4CCC5(CC4)C(=O)Nc4ccc(Cl)cc45)cnc32)C1` [Compound 275, 5-chloro-1′-[2-({7-oxo-8-[(cis)-3-hydroxy-3-methylcyclobutyl]-5,6,7,8-tetrahydro-1,8-naphthyridin-3-yl}oxy)ethyl]-1,2-dihydrospiro[indole-3,4′-piperidin]-2-one], the EC50 under setting [1] was determined as 61.2 nM.

As for `CN(C)C(=O)C1(c2ccc(OCCN3CCC4(CC3)C(=O)Nc3ccc(C#N)cc34)cc2)COC1` [Compound 254, 3-[4-(2-{5-cyano-2-oxo-1,2-dihydrospiro[indole-3,4′-piperidin]-1′-yl}ethoxy)phenyl]-N,N-dimethyloxetane-3-carboxamide], the EC50 under setting [1] was determined as 695 nM.

On to `C[C@@H](COc1ccc2c(cnn2C)c1)N1CCC2(CC1)C(=O)Nc1ccc(Cl)cc12` (single isomer, unassigned) [Compound 211], for which, under setting [1], the EC50 stood at 480 nM.

As for `Cn1c(=O)[nH]c2cc(OCCN3CCC4(CC3)C(=O)Nc3ccc(Cl)cc34)cnc21` [Compound 247, 5-chloro-1′-[2-({3-methyl-2-oxo-1H,2H,3H-imidazo[4,5-b]pyridin-6-yl}oxy)ethyl]-1,2-dihydrospiro[indole-3,4′-piperidin]-2-one], the EC50 under setting [1] is 186 nM.

As for `NC(=O)c1ccc(OCCN2CCC3(CC2)C(=O)Nc2ccc(Cl)cc23)cc1C(F)F` [Compound 249, 4-(2-{5-chloro-2-oxo-1,2-dihydrospiro[indole-3,4′-piperidin]-1′-yl}ethoxy)-2-(difluoromethyl)benzamide], under setting [1], the EC50 was 53.8 nM.

For `O=C1Nc2ccc(Cl)cc2C12CCN(CCOc1cnc(N3CC(O)C3)nc1)CC2` [Compound 301, 5-chloro-1′-(2-{[2-(3-hydroxyazetidin-1-yl)pyrimidin-5-yl]oxy}ethyl)-1,2-dihydrospiro[indole-3,4′-piperidin]-2-one], the EC50 under setting [1] stood at 327 nM.

In the case of `Cc1n[nH]cc1-c1ccc(OCCN2CCC3(CC2)C(=O)Nc2ccc(Cl)cc23)cc1` [Compound 244, 5-chloro-1′-{2-[4-(5-methyl-1H-pyrazol-4-yl)phenoxy]ethyl}-1,2-dihydrospiro[indole-3,4′-piperidin]-2-one], the EC50 under setting [1] is 141 nM.

`CNC(=O)c1ccc(OCCN2CCC3(CC2)C(=O)Nc2ccc(Cl)cc23)cc1F` [Compound 229, 4-(2-{5-chloro-2-oxo-1,2-dihydrospiro[indole-3,4′-piperidin]-1′-yl}ethoxy)-2-fluoro-N-methylbenzamide]: under setting [1], the EC50 is 417 nM.

With `O=C1Nc2ccc(Cl)cc2C12CCN(CCOc1cnc3c(N4CC(O)C4)nccc3c1)CC2` [Compound 314, 5-chloro-1′-(2-{[8-(3-hydroxyazetidin-1-yl)-1,7-naphthyridin-3-yl]oxy}ethyl)-1,2-dihydrospiro[indole-3,4′-piperidin]-2-one], under setting [1], the EC50 amounted to 25.4 nM.

On to `O=C(c1c(F)cc(OCCN2CCC3(CC2)C(=O)Nc2ccc(Cl)cc23)cc1F)N1CCS(=O)(=O)CC1` [Compound 259, 4-[4-(2-{5-chloro-2-oxo-1,2-dihydrospiro[indole-3,4′-piperidin]-1′-yl}ethoxy)-2,6-difluorobenzoyl]-1λ^6-thiomorpholine-1,1-dione], for which the EC50 under setting [1] came to 68 nM.

Take `CC(COc1ccc2c(c1)CCC(=O)N2C)N1CCC2(CC1)C(=O)Nc1ccc(Cl)cc12` (single isomer, unassigned) [Compound 200]: the EC50 under setting [1] came out at 185 nM.

In the case of `CS(=O)(=O)c1ccc(OCCN2CCC3(CC2)C(=O)Nc2ccc(Cl)cc23)cc1C(F)CF` (single isomer, unassigned) [Compound 219, 5-chloro-1′-(2-{3-[(1R or 1S)-1,2-difluoroethyl]-4-methanesulfonylphenoxy}ethyl)-1,2-dihydrospiro[indole-3,4′-piperidin]-2-one], under setting [2], the EC50 worked out at 22.3 nM.

Take `CS(=O)(=O)NC1CN(C(=O)c2ccc(OCCN3CCC4(CC3)C(=O)Nc3ccc(Cl)cc34)cc2F)C1` [Compound 237, N-{1-[4-(2-{5-chloro-2-oxo-1,2-dihydrospiro[indole-3,4′-piperidin]-1′-yl}ethoxy)-2-fluorobenzoyl]azetidin-3-yl} methanesulfonamide]: the EC50 under setting [1] worked out at 132 nM.

With `CS(=O)(=O)Nc1ccc(OCCN2CCC3(CC2)C(=O)Nc2ccc(Cl)cc23)cc1` [Compound 214, N-[4-(2-{5-chloro-2-oxo-1,2-dihydrospiro[indole-3,4′-piperidin]-1′-yl}ethoxy)phenyl]methanesulfonamide], under setting [1], the EC50 worked out at 250 nM.

On to `CN1C(=O)C2(CCN(CCOc3ccc(C4(S(C)(=O)=O)COC4)cc3)CC2)c2cc(C#N)ccc21` [Compound 251, 1′-{2-[4-(3-methanesulfonyloxetan-3-yl)phenoxy]ethyl}-1-methyl-2-oxo-1,2-dihydrospiro[indole-3,4′-piperidine]-5-carbonitrile], for which the EC50 under setting [1] worked out at 903 nM.

Regarding `N#Cc1ccc2c(c1)C1(CCN(CCOc3ccc(C(N)=O)c(F)c3)CC1)C(=O)N2` [Compound 238, 4-(2-{5-cyano-2-oxo-1,2-dihydrospiro[indole-3,4′-piperidin]-1′-yl}ethoxy)-2-fluorobenzamide], under setting [1], the EC50 was 1590 nM.

Regarding `O=C(c1ccc(OCCN2CCC3(CC2)C(=O)Nc2ccc(Cl)cc23)cc1F)N1CCOCC1` [Compound 231, 5-chloro-1′-{2-[3-fluoro-4-(morpholine-4-carbonyl)phenoxy]ethyl}-1,2-dihydrospiro[indole-3,4′-piperidin]-2-one], the EC50 under setting [1] amounted to 135 nM.

For `CNC(=O)N1CCc2cc(OCCN3CCC4(CC3)C(=O)Nc3ccc(Cl)cc34)ccc2C1` [Compound 245, 6-(2-{5-chloro-2-oxo-1,2-dihydrospiro[indole-3,4′-piperidin]-1′-yl}ethoxy)-N-methyl-1,2,3,4-tetrahydroisoquinoline-2-carboxamide], under setting [1], the EC50 came to 265 nM.

Source of the values: patent US12344610B2, “APOL1 inhibitors and methods of use” (Maze Therapeutics, Inc., priority 2022, dated 2025).
